Tested on: 6xHis mCherry F30-2xdBroccoli mRNA transcript (RNA, aptamer) GGGAGACCACAACGGUUUCCCUCUAGAAAUAAUUUUGUUUAACUUUAAGAAGGAGAUAUACCAUGUCUGGUUCUCAUCAUCAUCAUCAUCAUGGUAGCAGCGGCGAAAACCUGUAUUUUCAGUCCAUGGUGAGCAAGGGCGAGGAGGAUAACAUGGCCAUCAUCAAGGAGUUCAUGCGCUUCAAGGUGCACAUGGAGGGCUCCGUGAACGGCCACGAGUUCGAGAUCGAGGGCGAGGGCGAGGGCCGCCCCUACGAGGGCACCCAGACCGCCAAGCUGAAGGUGACCAAGGGUGGCCCCCUGCCCUUCGCCUGGGACAUCCUGUCCCCUCAGUUCAUGUACGGCUCCAAGGCCUACGUGAAGCACCCCGCCGACAUCCCCGACUACUUGAAGCUGUCCUUCCCCGAGGGCUUCAAGUGGGAGCGCGUGAUGAACUUCGAGGACGGCGGCGUGGUGACCGUGACCCAGGACUCCUCCCUGCAGGACGGCGAGUUCAUCUACAAGGUGAAGCUGCGCGGCACCAACUUCCCCUCCGACGGCCCCGUAAUGCAGAAGAAGACCAUGGGCUGGGAGGCCUCCUCCGAGCGGAUGUACCCCGAGGACGGCGCCCUGAAGGGCGAGAUCAAGCAGAGGCUGAAGCUGAAGGACGGCGGCCACUACGACGCUGAGGUCAAGACCACCUACAAGGCCAAGAAGCCCGUGCAGCUGCCCGGCGCCUACAACGUCAACAUCAAGUUGGACAUCACCUCCCACAACGAGGACUACACCAUCGUGGAACAGUACGAACGCGCCGAGGGCCGCCACUCCACCGGCGGCAUGGACGAGCUGUACAAGGGCAGCUAAAGGGUGAUCUUGCCAUGUGUAUGUGGGAGACGGUCGGGUCCAUCUGAGACGGUCGGGUCCAGAUAUUCGUAUCUGUCGAGUAGAGUGUGGGCUCAGAUGUCGAGUAGAGUGUGGGCUCCCACAUACUCUGAUGAUCCAGACGGUCGGGUCCAUCUGAGACGGUCGGGUCCAGAUAUUCGUAUCUGUCGAGUAGAGUGUGGGCUCAGAUGUCGAGUAGAGUGUGGGCUGGAUCAUUCAUGGCAACGGCUGCUAACAAAGCCCGAAAGGAAGCUGAGUUGGCUGCUGCCACCGCUGAGCAAUAACUAGCAUAACCCCUUGGGGCCUCUAAACGGGUCUUGAGGGGUUUUUUGCUGAAAGGAGGAACU
Experiment: fluorescence activation (in-gel staining; plate reader)
Settings: PURExpress reaction with 10 μM DFHBI, 80.4 mM sucrose, 30 °C; also in-gel DFHBI staining; qualitative

For `CC1=N/C(=C\c2cc(F)c(O)c(F)c2)C(=O)N1C`, which binding is on record?
Its binding is “yes”.

From PMC8787815 (2022)
